The source of these data is ChEMBL document CHEMBL1201862, “PubChem BioAssay data set” (2004).

Test systems include 786-0; A498; A549; BT-549; COLO 205; HT-29; IGROV-1; M14; MDA-MB-231; MDA-MB-435; MDA-N; NCI-H226; NCI/ADR-RES; OVCAR-4; SNB-19; TK-10; UACC-257; UACC-62; RXF 393.
What all share (experiment): DTP human tumour cell line panel, 48 h

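Dose response: 5 concentrations. Exposure: 48 h. Format: 96-well plates. Endpoint: linear interpolation; highest concentration if not reached. Here, GI50 denotes the concentration required for 50% inhibition of growth.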 Activity calls are given as the source filed them. Rule as the data show it: active = GI50 up to about 1.1 µM and inactive = higher. A value given as a limit tells only on which side of the number the result lay.

In general, GI50 refers to the concentration giving 50% growth inhibition.

In the case of `C=C1[C@@](C)([C@@H]2CCCS2)[C@H]2C(C)=C[C@]1(C)n1c(=O)n(-c3ccccc3)c(=O)n12`, the GI50 in the assay with 786-0, in the assay on A498, in the assay with A549, with BT-549, in the assay on COLO 205 and with HT-29 was > 100 µM (inactive) each time. The GI50 in the assay on IGROV-1 is 56.2 µM (inactive); with M14 it was > 100 µM (inactive); with MDA-MB-231, > 100 µM (inactive); with MDA-MB-435, > 100 µM (inactive); in the assay on MDA-N, > 100 µM (inactive); with NCI-H226, > 100 µM (inactive). Also, the GI50 in the assay on NCI/ADR-RES, in the assay with OVCAR-4, in the assay on SNB-19, in the assay with TK-10, in the assay on UACC-257 and with UACC-62 was > 100 µM (inactive) each time.
As for `O=C(CC(=O)N1N=C(N2CCCCC2)CC1c1ccccc1)Nc1ccc(Cl)cc1` (centres undefined), the GI50 in the assay on 786-0, with A498, in the assay on A549, with BT-549, with COLO 205 and in the assay with HT-29 was > 100 µM (inactive) throughout. In addition, the GI50 with IGROV-1, in the assay with M14, in the assay with MDA-MB-231, in the assay with MDA-MB-435, with MDA-N and in the assay on NCI-H226 was > 100 µM (inactive) in each case. For the same compound, the GI50 with NCI/ADR-RES, in the assay with OVCAR-4, with SNB-19, in the assay on TK-10, in the assay with UACC-257 and with UACC-62 was > 100 µM (inactive) throughout.
In the case of `CC1=NC(C)(C)[N+]([O-])=C1`, the GI50 in the assay with 786-0, in the assay on A498, in the assay on A549, in the assay on BT-549, with COLO 205 and in the assay with HT-29 was > 10 µM (inactive) in each case. The GI50 with IGROV-1, in the assay with M14, in the assay with MDA-MB-231, with MDA-MB-435, in the assay with MDA-N and in the assay on NCI-H226 was > 10 µM (inactive) each time. For the same compound, the GI50 in the assay on NCI/ADR-RES, in the assay on RXF 393, in the assay with SNB-19, in the assay on TK-10, in the assay with UACC-257 and with UACC-62 was > 10 µM (inactive) each time.
As to `S=C1N(c2ccc(Cl)cc2)C2=C(/N=N/c3ccccc3)C(=Nc3ccccc3S2)N1c1ccccn1`, the GI50 with 786-0 is 14.9 µM (inactive); in the assay with A498, < 0.01 µM (active); in the assay on A549, 13.6 µM (inactive); in the assay with BT-549, 11.1 µM (inactive); with COLO 205, 12.6 µM (inactive); with HT-29 it was 17.1 µM (inactive). The GI50 was 0.164 µM (active) with IGROV-1; 13.7 µM (inactive) in the assay with M14; 12.8 µM (inactive) in the assay with MDA-MB-231; 13.5 µM (inactive) in the assay on MDA-MB-435; 15.4 µM (inactive) in the assay on MDA-N; 15.5 µM (inactive) in the assay with NCI/ADR-RES. Besides, the figures for the GI50 in the assay with SNB-19, in the assay on TK-10 and with UACC-257 were 13.9 µM (inactive), 14.8 µM (inactive) and 15.8 µM (inactive), respectively.
Turning to `NCCN1C(=O)c2ccccc2C1c1ccc(Cl)cc1` (centres undefined), the GI50 in the assay with 786-0, with A498, in the assay on A549, in the assay with BT-549, in the assay on COLO 205 and in the assay on HT-29 was > 100 µM (inactive) each time. Besides, the GI50 in the assay on IGROV-1, with M14, in the assay with MDA-MB-231, in the assay on MDA-MB-435, with MDA-N and in the assay with NCI/ADR-RES was > 100 µM (inactive) throughout. In addition, the GI50 with OVCAR-4, in the assay on RXF 393, in the assay with SNB-19, in the assay on TK-10, with UACC-257 and with UACC-62 was > 100 µM (inactive) in each case.
Regarding `CCOC(=O)C(C)(C)C(O)C(C)C` (centres undefined), the GI50 in the assay with 786-0, in the assay with A498, in the assay on A549, in the assay with BT-549, with COLO 205 and in the assay with HT-29 was > 100 µM (inactive) throughout. Also, the GI50 in the assay with IGROV-1, in the assay on M14, in the assay on MDA-MB-231, in the assay on MDA-MB-435, with MDA-N and in the assay on NCI/ADR-RES was > 100 µM (inactive) each time. Besides, the GI50 in the assay on OVCAR-4, with RXF 393, in the assay on SNB-19, in the assay with TK-10, with UACC-257 and in the assay on UACC-62 was > 100 µM (inactive) in each case.
Turning to `Cc1ccc2nc(-c3ccc(C(C)(C)C)cc3)oc(=O)c2c1`, the GI50 is 25.1 µM (inactive) with 786-0; 24.8 µM (inactive) in the assay with A498; 14.6 µM (inactive) in the assay with A549; 24.4 µM (inactive) in the assay on BT-549; 18.2 µM (inactive) with COLO 205; 19.6 µM (inactive) in the assay with HT-29. Further, the GI50 in the assay on IGROV-1 is 23.1 µM (inactive); with M14, 23.8 µM (inactive); with MDA-MB-231, 20.6 µM (inactive); in the assay with MDA-MB-435, 14.7 µM (inactive); with MDA-N, 22.9 µM (inactive); in the assay on NCI/ADR-RES it was 17.7 µM (inactive). Also, the GI50 in the assay with OVCAR-4 is 20.7 µM (inactive); in the assay with RXF 393, 36.5 µM (inactive); in the assay with SNB-19 it was 25.2 µM (inactive); in the assay with TK-10 it was 39.7 µM (inactive); in the assay on UACC-257, 18.9 µM (inactive); with UACC-62, 17.5 µM (inactive).
`CO/C(C)=N/CCC1=CCCCC1`: the GI50 with 786-0, with A498, in the assay on A549, in the assay with BT-549, in the assay with COLO 205 and in the assay with HT-29 was > 100 µM (inactive) throughout. Also, the GI50 in the assay with IGROV-1, in the assay with M14, in the assay on MDA-MB-231, in the assay on MDA-MB-435, in the assay on MDA-N and in the assay on NCI/ADR-RES was > 100 µM (inactive) throughout. Besides, the GI50 with OVCAR-4, with RXF 393, in the assay with SNB-19, with TK-10, in the assay on UACC-257 and in the assay on UACC-62 was > 100 µM (inactive) throughout.
For the compound `CCC(C#N)NCc1cccc(CNC(C#N)CC)c1` (centres undefined), the GI50 in the assay on 786-0, with A498, in the assay with A549, in the assay with BT-549, in the assay on COLO 205 and with HT-29 was > 100 µM (inactive) in each case. In addition, the GI50 with IGROV-1 is > 100 µM (inactive); with M14, 17.6 µM (inactive); in the assay with MDA-MB-231, > 100 µM (inactive); in the assay on MDA-MB-435, > 100 µM (inactive); in the assay with MDA-N, > 100 µM (inactive); in the assay with NCI-H226, > 100 µM (inactive). For the same compound, the GI50 in the assay with NCI/ADR-RES, in the assay on OVCAR-4, in the assay with SNB-19, in the assay on TK-10, in the assay on UACC-257 and in the assay on UACC-62 was > 100 µM (inactive) in each case.
As for `CSc1n[n+](C)cc(N)c1N`, the GI50 is > 100 µM (inactive) in the assay with 786-0; > 100 µM (inactive) in the assay on A498; > 100 µM (inactive) in the assay with A549; 87.1 µM (inactive) with BT-549; > 100 µM (inactive) in the assay with COLO 205; > 100 µM (inactive) in the assay on HT-29. The GI50 with IGROV-1, in the assay on M14, in the assay with MDA-MB-231, in the assay on MDA-MB-435, in the assay with MDA-N and with NCI-H226 was > 100 µM (inactive) each time. Moreover, the GI50 in the assay on NCI/ADR-RES was > 100 µM (inactive); in the assay with OVCAR-4 it was > 100 µM (inactive); in the assay with SNB-19, 29.9 µM (inactive); in the assay on TK-10 it was > 100 µM (inactive); in the assay on UACC-257 it was 52 µM (inactive); with UACC-62 it was > 100 µM (inactive).
As for `O=C(/C=C/c1ccc2c(c1)OCO2)Cc1nc2ccccc2[nH]c1=O`, the GI50 was 16.7 µM (inactive) in the assay on 786-0; 20.3 µM (inactive) in the assay on A498; 23.4 µM (inactive) in the assay with A549; 43.7 µM (inactive) in the assay on BT-549; 52.6 µM (inactive) in the assay on COLO 205; 28.5 µM (inactive) with HT-29. The GI50 is 21 µM (inactive) in the assay on IGROV-1; 11.7 µM (inactive) in the assay with M14; 20.2 µM (inactive) in the assay on MDA-MB-231; 20 µM (inactive) in the assay with MDA-MB-435; 26.6 µM (inactive) in the assay with MDA-N; 22.1 µM (inactive) with NCI/ADR-RES. The GI50 in the assay on RXF 393 was 17.9 µM (inactive); in the assay with SNB-19 it was 24.2 µM (inactive); in the assay on TK-10, 18.5 µM (inactive); in the assay with UACC-257 it was 25.4 µM (inactive); with UACC-62, 6.76 µM (inactive).
